Assay results: patent publication US6043265A, “Isoxazolyl endothelin antagonists” (Bristol-Myers Squibb Co., priority 1998, dated 2000)
Where two headings read alike, the source gives them in different places.

Tests used:
[1] = Oral bioavailability in fasted male rats (intravenous and oral dosing); assay type: in vivo; settings: for bioavailability / AUC(0-inf): rat, plasma; for bioavailability: from dose-normalized AUC.infin. oral vs intravenous; for AUC(0-inf): fasted male rats (n=3), read-out: area under the curve AUC.infin.
Procedure: Fasted male rats (n=3) were given a single dose of the title compound either intravenously (10 μmol/kg as a 10 minute infusion) or orally by gavage (20 μmol/kg). The dosing vehicle was propylene glycol for the intravenous dose and PEG-400 for the oral dose. Following dosing, the average plasma concentration of the title compound was measured over time, and the area under the curve AUC.infin.

[2] = system: big ET-1 pressor response; assay: Pressor testing (ii): inhibition of big ET-1 pressor response over time after oral dosing; assay type: in vivo, Sprague-Dawley rats; settings: 3 μmol/kg, human big ET-1 1 nmol/kg i.v., n=3
From the text: Peak pressor responses were compared to determine the amount of inhibition caused by the title compound at these time intervals.

[3] = system: big ET-1 pressor response; assay: Pressor testing (i): inhibition of big ET-1 pressor response after intravenous dosing; assay type: in vivo; settings: Rattus norvegicus, 5 min, read-out: dose causing 50% inhibition of the big ET-1 pressor response (ED50), human big ET-1 1 nmol/kg i.v. before and 5 minutes after compound, conscious normotensive Sprague-Dawley rats
Procedure: (i) Intravenous injection of big ET-1 into conscious, normotensive rats produces a transient increase in mean arterial pressure which can be blunted by an ETA receptor antagonist.
A bolus injection of human big ET-1 (1 nmol/kg, intravenously; vehicle: 1% Tween 80 in 5% NaHCO3) was administered to Sprague-Dawley rats before and 5 minutes after intravenous injection of an amount of the title compound (0.01 μmol/kg (n=10), 0.03 μmol/kg (n=10), and 0.1 μmol/kg (n=3)). Peak pressor responses were compared to determine the amount of inhibition caused by the title compound.

[4] = Pre-systemic metabolic stability within the gastrointestinal tract, in vivo (bile duct cannulated rats); settings: rat, po, 29 mg/kg
Procedure: Bile duct cannulated rats were fasted overnight. The title compound was administered as a solution in 5% sodium bicarbonate (ca. 8 mg/ml, 29 mg/kg) by oral gavage. Gastrointestinal tract homogenate was made in 3 volumes of water and an equal volume of acetonitrile was added.

in vitro = settings: rat, cecal contents, pH 7.4
Procedure: Rat cecal contents were quickly placed in cold, degassed potassium phosphate buffer (50 mM, pH 7.4, purged by nitrogen bubbling for at least 30 minutes). Each incubation contained ca. 0.1 g of cecal contents/ml. […] Samples were analyzed with HPLC-UV and LC-MS on a YMC-ODS AQ column (4.6×150 mm, 3μ) eluted with an ammonium acetate/acetonitrile gradient and detected at 270 nm.

bioavailability ([1]; 20 umol/kg, fasted male rats) [%]	metabolites in the gastrointestinal tract [4]	remaining at 9 h [4] [%]	dose-normalized AUC.infin. values, intravenous versus oral ([1]; fasted male rats, 10 μmol/kg intravenous vs 20 μmol/kg oral)	AUC(0-inf) ([1]; 10 umol/kg, intravenous, 10 μmol/kg as a 10 minute infusion, propylene glycol vehicle) [µM·h]	AUC(0-inf) ([1]; 20 umol/kg, oral gavage, 20 μmol/kg, PEG-400 vehicle) [µM·h]	remaining at 1 h, 200 µM (in vitro) [%]	Compound	% Inhibition (big ET-1 pressor response) ([2]; 15 minutes after dosing) [%]	% Inhibition (big ET-1 pressor response) ([2]; 105 minutes after dosing) [%]	% Inhibition (big ET-1 pressor response) ([2]; 195 minutes after dosing) [%]	ED50 [3] [µmol/kg]
~78							Cc1onc(NS(=O)(=O)c2ccccc2-c2ccc(-c3ncco3)cc2CN2CCC(C)(C)C2=O)c1C [N-(4,5-dimethyl-3-isoxazolyl)-2'-[(3,3-dimethyl-2-oxo-1-pyrrolidinyl)methyl]-4'-(2-oxazolyl)[1,1'-biphenyl]-2-sulfonamide]				
~100	metabolites were not observed	100	not statistically different	31.3 ± 2.9	72.8 ± 17.3	100	Cc1onc(NS(=O)(=O)c2ccccc2-c2ccc(-c3ncco3)cc2CN(C)C(=O)CC(C)(C)C)c1C [N-[[2'-[[(4,5-dimethyl-3-isoxazolyl)amino]sulfonyl]-4-(2-oxazolyl)[1,1'-biphenyl]-2-yl]methyl]-N,3,3-trimethylbutanamide]	57 ± 7	65 ± 13	74 ± 8	0.03
